Patent publication US20130165635A1 (priority 2010, published 2013)
Numbered stars: 1 amine (or outer) side, 2 acyl side, 3 side chain; on linkers, the order of the positions; unused ones are H or OH. Bridge positions count the residues as written; N and C are the ends. Square brackets hold non-standard residues; d marks the D form. Peptide text beside a SMILES is read from it. X1 = CC(C)CCCCCCCCC[C@H](CC(=O)[*:1])O[*:2]

How the values were obtained:
Format in all cases: cell-based
[1] = system: Fusarium oxysporum
[2] = system: Magnaporthe grisea; details: 1.56 to 12.56 μg/mL, 100 μL in cup, 25° C. for 1 to 3 days
[3] = system: Trichophyton mentagrophytes

Compound | antifungal activity (growth inhibition of test microorganism) [1] | antifungal activity (growth inhibition of test microorganism) [2] | antifungal activity (growth inhibition of test microorganism) [3]
CC(C)CCCCCCCCC[C@@H]1CC(=O)N[C@@H](CCC(=O)O)C(=O)N[C@@H](CC(C)C)C(=O)N[C@H](CC(C)C)C(=O)N[C@@H](C(C)C)C(=O)N[C@@H](CC(=O)O)C(=O)N[C@H](CC(C)C)C(=O)N[C@@H](CC(C)C)C(=O)O1 [surfactin] (EL[dL]VD[dL]L; linker N-C via X1) | did not show antifungal activity | weaker than iturin A, but slight inhibitory activities | 
iturin A | strong antifungal activity | strong antifungal activities | strong antifungal activities
